Results taken from ChEMBL document CHEMBL1641531, “Receptor activity and conformational analysis of 5'-halogenated resiniferatoxin analogs as TRPV1 ligands” (Bioorg Med Chem Lett, 2011).

What was measured:
[1] = target: T1, Transient receptor potential cation channel subfamily V member 1 (Rattus norvegicus, UniProt O35433); assay: Displacement of [3H]RTX from rat […] expressed in CHO cells by competitive binding assay; type: cell-based
[2] = target: Transient receptor potential cation channel subfamily V member 1 (Rattus norvegicus) (UniProt O35433); assay: Agonist activity at rat TRPV1 expressed in CHO cells assessed as 45Ca2+ uptake relative to capsaicin; type: functional, cell-based
[3] = target: T1, Transient receptor potential cation channel subfamily V member 1; assay: (§1) Antagonist activity at rat TRPV1 expressed in CHO cells assessed as response to capsaicin-stimulated 45Ca2+ uptake; type: functional, cell-based
[4] = target: T1, Transient receptor potential cation channel subfamily V member 1; assay: Agonist activity at rat TRPV1 expressed in CHO cells assessed as 45Ca2+ uptake; type: functional, cell-based
[5] = target: Transient receptor potential cation channel subfamily V member 1 (Rattus norvegicus) (UniProt O35433); assay: as §1; type: functional, cell-based; design: scale not given: the % may be the effect or the level left

T1 sequence (O35433 whole entry): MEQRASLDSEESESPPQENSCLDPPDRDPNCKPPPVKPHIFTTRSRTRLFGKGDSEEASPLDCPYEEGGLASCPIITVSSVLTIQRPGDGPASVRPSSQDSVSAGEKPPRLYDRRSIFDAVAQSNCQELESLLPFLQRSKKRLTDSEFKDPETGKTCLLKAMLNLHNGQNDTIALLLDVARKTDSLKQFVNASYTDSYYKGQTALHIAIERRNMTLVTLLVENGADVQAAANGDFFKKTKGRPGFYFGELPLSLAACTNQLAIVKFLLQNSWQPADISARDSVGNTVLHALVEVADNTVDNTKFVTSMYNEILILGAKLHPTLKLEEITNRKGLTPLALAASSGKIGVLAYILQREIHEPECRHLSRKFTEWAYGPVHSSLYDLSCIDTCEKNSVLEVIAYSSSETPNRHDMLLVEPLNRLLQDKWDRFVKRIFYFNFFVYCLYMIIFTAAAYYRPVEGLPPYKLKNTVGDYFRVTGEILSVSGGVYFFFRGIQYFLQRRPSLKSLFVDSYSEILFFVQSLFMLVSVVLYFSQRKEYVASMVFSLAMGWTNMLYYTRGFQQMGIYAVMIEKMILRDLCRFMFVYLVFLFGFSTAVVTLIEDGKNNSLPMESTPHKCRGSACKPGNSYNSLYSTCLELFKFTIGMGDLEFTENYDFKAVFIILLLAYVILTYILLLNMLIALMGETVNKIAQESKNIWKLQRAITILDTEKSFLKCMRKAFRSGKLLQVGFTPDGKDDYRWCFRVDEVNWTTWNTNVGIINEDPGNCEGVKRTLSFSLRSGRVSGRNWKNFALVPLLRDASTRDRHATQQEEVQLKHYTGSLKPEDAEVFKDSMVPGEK
Sequence of Transient receptor potential cation channel subfamily V member 1 (Rattus norvegicus) (O35433 whole entry): as above

| SMILES | Ki [1] | Activity [2] | Ki ([3]; read-out: Ki) | Ki ([3]; cho) | EC50 ([4]; read-out: EC50) | EC50 ([4]; cho) | Activity [5] |
| --- | --- | --- | --- | --- | --- | --- | --- |
| C=C(C)[C@@]12C[C@@H](C)C34OC(Cc5ccccc5)(OC1[C@@H]3C=C(COC(=O)Cc1cc(Br)c(O)c(OC)c1)C[C@]1(O)C(=O)C(C)=C[C@@H]41)O2 (stereo partly specified) | 0.17 nM | 19% | 7.2 nM |  |  |  |  |
| C=C(C)[C@@]12C[C@@H](C)C34OC(Cc5ccccc5)(OC1[C@@H]3C=C(COC(=O)Cc1cc(Br)cc(Br)c1)C[C@]1(O)C(=O)C(C)=C[C@@H]41)O2 (stereo partly specified) | 110 nM |  |  | Not Active | 1070 nM |  |  |
| C=C(C)[C@]12C[C@@H](C)[C@@]34O[C@](Cc5ccccc5)(O[C@@H]1[C@@H]3C=C(COC(=O)Cc1ccc(O)c(OC)c1)C[C@]1(O)C(=O)C(C)=C[C@@H]41)O2 [RESINIFERATOXIN] |  |  |  | Not Active |  |  |  |
| C=C(C)[C@@]12C[C@@H](C)C34OC(Cc5ccccc5)(OC1[C@@H]3C=C(COC(=O)Cc1cc(I)c(O)c(OC)c1)C[C@]1(O)C(=O)C(C)=C[C@@H]41)O2 (stereo partly specified) | 0.61 nM |  | 12.2 nM |  |  | Not Active |  |
| C=C(C)[C@@]12C[C@@H](C)C34OC(Cc5ccccc5)(OC1[C@@H]3C=C(COC(=O)Cc1cc(Cl)c(N)c(OC)c1)C[C@]1(O)C(=O)C(C)=C[C@@H]41)O2 (stereo partly specified) | 0.85 nM | 34% |  |  |  |  | 56% |
| C=C(C)[C@@]12C[C@@H](C)C34OC(Cc5ccccc5)(OC1[C@@H]3C=C(COC(=O)Cc1cc(Cl)c(O)c(OC)c1)C[C@]1(O)C(=O)C(C)=C[C@@H]41)O2 (stereo partly specified) | 1.03 nM |  |  | Not Active | 5.7 nM |  |  |
| C=C(C)[C@@]12C[C@@H](C)C34OC(Cc5ccccc5)(OC1[C@@H]3C=C(COC(=O)Cc1cc(Br)c(N)c(OC)c1)C[C@]1(O)C(=O)C(C)=C[C@@H]41)O2 (stereo partly specified) | 1.99 nM |  | 2.81 nM |  |  | Not Active |  |
| C=C(C)[C@@]12C[C@@H](C)C34OC(Cc5ccccc5)(OC1[C@@H]3C=C(COC(=O)Cc1cc(Br)c(OC(C)=O)c(OC)c1)C[C@]1(O)C(=O)C(C)=C[C@@H]41)O2 (stereo partly specified) | 0.3 nM | 37% |  |  |  |  | 30% |
| C=C(C)[C@@]12C[C@@H](C)C34OC(Cc5ccccc5)(OC1[C@@H]3C=C(COC(=O)Cc1cc(F)c(N)c(OC)c1)C[C@]1(O)C(=O)C(C)=C[C@@H]41)O2 (stereo partly specified) | 0.7 nM |  |  | Not Active | 1.14 nM |  |  |
| C=C(C)[C@@]12C[C@@H](C)C34OC(Cc5ccccc5)(OC1[C@@H]3C=C(COC(=O)Cc1cc(F)c(O)c(OC)c1)C[C@]1(O)C(=O)C(C)=C[C@@H]41)O2 (stereo partly specified) | 0.26 nM |  |  | Not Active | 1.88 nM |  |  |
| C=C(C)[C@@]12C[C@@H](C)C34OC(Cc5ccccc5)(OC1[C@@H]3C=C(COC(=O)Cc1ccc(N)c(OC)c1)C[C@]1(O)C(=O)C(C)=C[C@@H]41)O2 (stereo partly specified) | 0.13 nM |  |  | Not Active | 0.46 nM |  |  |
